{"source": "patent US20240398783A1", "about": "“Compounds and Pharmaceutical Compositions Comprising Inhibitors of Amyloid Peptide Interactions with Glycosaminoglycans, Methods of Treatment and Use Thereof” (Gismo Therapeutics, Inc., priority 2021, published 2024)", "note": "Structures can show the parent of a compound that is named as a salt."}
{"biological_target": "Alpha-Synuclein Protofibril binding to heparin (HS-GAG) (Homo sapiens, UniProt P37840)", "test": "Inhibition of alpha-synuclein protofibril binding to immobilized heparin-BSA (ELISA)", "design": "species or system porcine", "details": "30 μM compound; alpha-synuclein protofibrils, heparin-BSA; read-out: Alpha-Synuclein/Heparin Activity (% inhibition class)", "description": "(§1) Porcine intestinal mucosa heparin conjugated to Bovine Serum Albumin (Heparin-BSA) was prepared as described (Najjam, S. et al. 1997, Cytokine 12, 1013-1022). Heparin is a sulfated HS-GAG and is commonly used as a HS-GAG in biochemical and binding assays (Lindahl, U. and Kjellen, L. (2013) ibid). Heparin-BSA at 0.01 mg/ml in Phosphate Buffered Saline (PBS; pH 7.4) was added to a 96 well polystyrene ELISA plate (NUNC Cat. No. 449824; 100 μl per well) and incubated Over Night (ON) at 4 degrees Celsius. For negative controls, ELISA plates were coated with BSA instead of Heparin-BSA, using the same procedure. Following the incubation, the plate was washed consecutively, by immersion, with de-ionized water and PBS (pH 7.4). The ELISA plate was then blocked with nonfat milk (2%, 200 μl per well) for 2 hours at Room Temperature (RT) with gentle shaking. Following blocking, the plate was washed with de-ionized water then PBS (pH 7.4). GBAPs were dissolved and diluted in PBS (pH 6.5, supplemented with 0.1% BSA) at desired concentrations, added to the ELISA plates containing immobilized Heparin-BSA (100 μl per well) and incubated for 2 hours at RT with gentle shaking. Following incubation, the plate was washed with de-ionized water and three times with PBS (pH 6.5) plus Tween. Bound GBAP was detected by a monoclonal antibody specific for that GBAP, followed by incubation with secondary antibody conjugated to horseradish peroxidase (HRP). Antibody was diluted in PBS (pH 6.5 supplemented with 1% BSA). Following each incubation with antibody, the plate was washed with de-ionized water and three times with PBS (pH 6.5) wash buffer containing 0.1% Tween. The peroxidase substrate chromogen, TMB (Dako Cat. No. S1599) was added (100 μl per well) to the ELISA plate and incubated at room temperature. After 5 minutes ELISA Stop Solution (hydrochloric acid 1N, sulfuric acid 3N) was added (100 μl per well) to stop the peroxidase catalyzed colorimetric reaction. The Optical Density of the samples was measured at 450 nm using an ELISA plate reader (BioTek Synergy H1). Following color development, the % inhibition compared to control (BSA-coated plates) was determined. IC-50s were calculated using GraphPad Prism software.\n(§2) The assay was performed as described in Example 43, with the following modifications. Following to coating the plates with Heparin-BSA, plates were washed as described. The compounds were dissolved in DMSO at 10 mM final concentration and further diluted prior to assay. DMSO concentration in the screening well was up to […]. Individual compounds were co-incubated with alpha-synuclein on plates containing immobilized heparin. Alpha-synuclein purchased from rPeptide (Cat. No. S1001) was used to prepare protofibrils as described in Ihse et al., 2017. Alpha-synuclein was dissolved in PBS (pH7.4) to a concentration of 140 μM (˜2 mg/ml), and incubated for 7 days at 37° C. with rotary agitation (400 rpm). Resulting fibrils were sonicated for 10 minutes in ultrasonic water bath, quickly frozen and kept in aliquots at −80 degrees Celsius. Protofibrillar alpha-synuclein diluted in PBS (pH 6.5, supplemented with BSA, 0.1%) was added to the ELISA plate (100 μl per well) and incubated for 2 hours at RT with gentle shaking. Following the incubation, the plate was washed with de-ionized water and three times with PBS (pH 6.5) plus Tween. Bound Alpha-synuclein was detected by Anti-Alpha-synuclein Monoclonal Antibody 211 (Santa Cruz Cat. No. sc-12767), followed by secondary anti-IgG antibody conjugated to HRP (R&D System, Cat. No. HAF007). Following to color development with TMB, as described in Example 43, the Optical Density of the samples was measured at 450 nm using an ELISA plate reader. Following color development, the % inhibition compared to control (no compound, DMSO control) for every compound was determined.\n(§3) An example of inhibition curve is shown in FIG. 1 for Inhibitor Compounds 22 and 24. […]", "units": {"inhibition at 30 µM": "%"}}
{"smiles": "CCN(CC)Cc1cccc(Nc2ccnc3cc(Cl)ccc23)c1", "note": "[Compound 42, 7-chloro-N-(3-((diethylamino)methyl)phenyl)quinolin-4-amine]", "inhibition at 30 µM": "< 30"}
{"smiles": "CN(C)Cc1cc(Nc2ccnc3cc(Cl)ccc23)ccn1", "note": "[Compound 45, 7-chloro-N-(2-((dimethylamino)methyl)pyridin-4-yl)quinolin-4-amine]", "inhibition at 30 µM": "< 30"}
{"biological_target": "Alpha-Synuclein Protofibril binding to heparin (HS-GAG) (Homo sapiens, UniProt P37840)", "test": "Inhibition of alpha-synuclein protofibril binding to immobilized heparin-BSA (ELISA)", "design": "species or system porcine", "details": "Alpha-Synuclein/Heparin Activity (IC-50), alpha-synuclein protofibrils, heparin-BSA", "description": "as §1, §2, §3", "units": {"IC50": "µM"}}
{"smiles": "Clc1ccc2c(Nc3ccc(-n4cncn4)nc3)ncnc2c1", "note": "[Compound 34, N-(6-(1H-1,2,4-triazol-1-yl)pyridin-3-yl)-7-chloroquinazolin-4-amine phosphoric acid salt]", "IC50": 5.06}
{"smiles": "CC(=NNc1ccnc2cc(Cl)ccc12)c1ccc(-n2ccnc2)cc1", "note": "[Compound 36, 4-(2-(1-(4-(1H-imidazol-1-yl)phenyl)ethylidene)hydrazineyl)-7-chloroquinoline phosphate]", "IC50": 4.17}
{"smiles": "Clc1ccc2c(N/N=C/c3ccc(-n4ccnc4)cc3)ccnc2c1", "note": "[Compound 38, 4-(2-(4-(1H-imidazol-1-yl)benzylidene)hydrazineyl)-7-chloroquinoline dihydrochloride]", "IC50": 1.88}
{"smiles": "CCN1CCN(c2ccc(Nc3ccnc4cc5ccccc5cc34)cc2)CC1", "note": "[Compound 39, N-(4-(4-ethylpiperazin-1-yl)phenyl)benzo[g]quinolin-4-amine]", "IC50": 3.39}
{"smiles": "Clc1ccc2c(Nc3ccc(-n4cncn4)nc3)ccnc2c1", "note": "[Compound 44, N-(6-(1H-1,2,4-triazol-1-yl)pyridin-3-yl)-7-chloroquinolin-4-amine]", "IC50": 19.2}
{"biological_target": "Alpha-Synuclein Protofibril binding to heparin (HS-GAG) (Homo sapiens, UniProt P37840)", "test": "Inhibition of alpha-synuclein protofibril binding to immobilized heparin-BSA (ELISA)", "design": "species or system porcine", "details": "alpha-synuclein protofibrils, heparin-BSA; read-out: Alpha-Synuclein/Heparin Activity (IC-50)", "description": "as §1, §2, §3", "units": {"IC50": "µM"}}
{"smiles": "CC(=NNc1ncnc2cc(Cl)ccc12)c1ccnc(-n2cnc(C)c2C)c1", "note": "[Compound 28, 7-chloro-4-(2-(1-(2-(4,5-dimethyl-1H-imidazol-1-yl)pyridin-4-yl)ethylidene)hydrazineyl)quinazoline]", "IC50": 3.23}
{"smiles": "Clc1ccc2c(Nc3ccc(-n4ccnc4)nc3)ncnc2c1", "note": "[Compound 41, N-(6-(1H-imidazol-1-yl)pyridin-3-yl)-7-chloroquinazolin-4-amine]", "IC50": 12.8}
{"biological_target": "Alpha-Synuclein Protofibril binding to heparin (HS-GAG) (Homo sapiens, UniProt P37840)", "test": "Inhibition of alpha-synuclein protofibril binding to immobilized heparin-BSA (ELISA)", "design": "species or system porcine", "details": "read-out: Alpha-Synuclein/Heparin Activity (% inhibition class)", "description": "as §1, §2, §3", "units": {"inhibition at 30 µM": "%"}}
{"smiles": "C/C(=N\\Nc1ncnc2cc(Cl)ccc12)c1cccc(CN(C)C)c1", "note": "[Compound 29, 1-(3-(1-(2-(7-chloroquinazolin-4-yl)hydrazineylidene)ethyl)phenyl)—N,N-dimethylmethanamine]", "inhibition at 30 µM": "> 30"}
{"smiles": "C/C(=N\\Nc1ncnc2cc(Cl)ccc12)c1cccc(N2CCN(C)CC2)c1", "note": "[Compound 30, 7-chloro-4-(2-(1-(3-(4-methylpiperazin-1-yl)phenyl)ethylidene)hydrazineyl)quinazoline]", "inhibition at 30 µM": "> 30"}
{"smiles": "COc1cc(Nc2nncc3cc(Cl)ccc23)cnc1-n1cnc(C)c1C", "note": "[Compound 31, 6-chloro-N-(6-(4,5-dimethyl-1H-imidazol-1-yl)-5-methoxypyridin-3-yl)phthalazin-1-amine phosphoric acid salt]", "inhibition at 30 µM": "< 30"}
{"smiles": "C/C(=N\\Nc1ncnc2cc(Cl)ccc12)c1ccc(-n2cncn2)nc1", "note": "[Compound 32, (E)-4-(2-(1-(6-(1H-1,2,4-triazol-1-yl)pyridin-3-yl)ethylidene)hydrazineyl)-7-chloroquinazoline]", "inhibition at 30 µM": "> 30"}
{"smiles": "COc1cc(Nc2cncc3cc(Cl)ccc23)cnc1-n1cnc(C)c1C", "note": "[Compound 33, 7-chloro-N-(6-(4,5-dimethyl-1H-imidazol-1-yl)-5-methoxypyridin-3-yl)isoquinolin-4-amine phosphoric acid salt]", "inhibition at 30 µM": "< 30"}
{"smiles": "Fc1cc(/C=N/Nc2ccnc3cc(Cl)ccc23)ccc1-n1ccnc1", "note": "[Compound 35, (E)-7-chloro-4-(2-(3-fluoro-4-(1H-imidazol-1-yl)benzylidene)hydrazineyl)quinoline hydrochloride]", "inhibition at 30 µM": "< 30"}
{"smiles": "Cc1cn(-c2ccc(Nc3cncc4cc(Cl)ccc34)cn2)c(C)n1", "note": "[Compound 37, 7-chloro-N-(6-(2,4-dimethyl-1H-imidazol-1-yl)pyridin-3-yl)isoquinolin-4-amine phosphoric acid salt]", "inhibition at 30 µM": "< 30"}
{"smiles": "Cc1ncn(-c2ncc(Nc3ncnc4cc(Cl)ccc34)cc2O)c1C", "note": "[Compound 40, 5-((7-chloroquinazolin-4-yl)amino)-2-(4,5-dimethyl-1H-imidazol-1-yl)pyridin-3-ol phosphoric acid salt]", "inhibition at 30 µM": "< 30"}
{"smiles": "C[n+]1ccn(-c2ccc(Nc3ncnc4cc(Cl)ccc34)cn2)c1", "note": "[Compound 43, 1-(5-((7-chloroquinazolin-4-yl)amino)pyridin-2-yl)-3-methyl-1H-imidazol-3-ium iodide phosphoric acid salt]", "inhibition at 30 µM": "< 30"}
